Counter-ions that a name gives are not always drawn. Like-named read-outs stand apart in the source and are kept apart here.
How the values were obtained:
[1] = molecular target: T1, SARS-CoV-2 PLpro (nsp3 1564–1878) (Severe acute respiratory syndrome coronavirus 2, UniProt P0DTD1); assay: biochemical; design: FRET-quenched peptide (Pro3) cleavage by PLpro, 10 min pre-incubation, slope over 20 min, normalised to no-compound control; conditions: low concentration screen, read-out: % of control remaining
[2] = molecular target: T1, SARS-CoV-2 PLpro (nsp3 1564–1878); assay: biochemical; design: FRET-quenched peptide (Pro3) cleavage by PLpro, 10 min pre-incubation, slope over 20 min, normalised to no-compound control; conditions: high concentration screen, read-out: % of control remaining

## COc1cc(C(C)=O)cc(-c2cc(C(C)=O)cc(OC)c2O)c1O [1,1'-(6,6'-dihydroxy-5,5'-dimethoxy-[1,1'-biphenyl]-3,3'-diyl)bis(ethan-1-one)]
[1]; Well no.=5981
  remaining activity at 1.25 µM: 101%
[2]; Well no.=5981
  remaining activity at 3.75 µM: 96.6%

## CC(C)c1cc(-c2ccc(F)c3ccccc23)nc(N)n1 [RS 127445]
[1]; Well no.=8477
  remaining activity at 1.25 µM: 107%
[2]; Well no.=8477
  remaining activity at 3.75 µM: 105%

## Cc1ccc2c(c1)C1(CCN(CCc3nc(-c4ccccc4)oc3C)CC1)OC(=O)N2 [6-methyl-1'-(2-(5-methyl-2-phenyloxazol-4-yl)ethyl)spiro[benzo[d][1,3]oxazine-4,4'-piperidin]-2(1H)-one]
[1]; Well no.=5915
  remaining activity at 1.25 µM: 93.5%
[2]; Well no.=5915
  remaining activity at 3.75 µM: 93.6%

## CCCCC[C@H](O)CC(=O)CCc1ccc(O)c(OC)c1 [Gingerol]
[1]; Well no.=3319
  remaining activity at 1.25 µM: 97%
[2]; Well no.=3319
  remaining activity at 3.75 µM: 101%

## O=c1[nH]cnc2c1ncn2[C@H]1C[C@H](O)[C@@H](CO)O1 [2'-Deoxyinosine]
[1]; Well no.=7497
  remaining activity at 1.25 µM: 106%
[1]; Well no.=7712
  remaining activity at 1.25 µM: 95%
[2]; Well no.=7497
  remaining activity at 3.75 µM: 105%
[2]; Well no.=7712
  remaining activity at 3.75 µM: 96.3%

## Cc1cnc(C(=O)O)c[n+]1[O-] [Acipimox]
[1]; Well no.=2069
  remaining activity at 1.25 µM: 102%
[2]; Well no.=2069
  remaining activity at 3.75 µM: 104%

## COc1cc(C(=O)N(CCCc2ccccc2)Cc2ccc(CC(=O)O)cc2)cc(OC)c1C [ONO-7300243]
[1]; Well no.=7711
  remaining activity at 1.25 µM: 101%
[2]; Well no.=7711
  remaining activity at 3.75 µM: 103%

## O=C(O)C(=O)c1cn(Cc2ccccc2)c2ccc(-c3ccc(OC(F)(F)F)cc3)cc12 [Tiplaxtinin]
[1]; Well no.=5648
  remaining activity at 1.25 µM: 92.2%
[2]; Well no.=5648
  remaining activity at 3.75 µM: 93.4%

## CCCCC/C=C\C\C=C/C=C/C=C/[C@@H](SC[C@H](N)C(=O)O)[C@@H](O)CCCC(=O)O [Leukotriene E4]
[1]; Well no.=4433
  remaining activity at 1.25 µM: 99.2%
[2]; Well no.=4433
  remaining activity at 3.75 µM: 99.5%

## CC(C)(C)NC[C@H](O)COc1nsnc1N1CCOCC1 [(S)-Timolol maleate]
[1]; Well no.=1739
  remaining activity at 1.25 µM: 98.8%
[2]; Well no.=1739
  remaining activity at 3.75 µM: 97.3%

## CN1C[C@H](CO)C[C@@H]2c3cccc4[nH]cc(c34)C[C@H]21 [9,10-Dihydrolysergol]
[1]; Well no.=3468
  remaining activity at 1.25 µM: 108%
[2]; Well no.=3468
  remaining activity at 3.75 µM: 109%

## COc1ccc2cc1Oc1ccc(cc1)C[C@H]1c3cc(c(OC)cc3CCN1C)Oc1c(OC)c(OC)cc3c1[C@H](C2)N(C)CC3 [Tetrandrine]
[1]; Well no.=3182
  remaining activity at 1.25 µM: 103%
[2]; Well no.=3182
  remaining activity at 3.75 µM: 99.4%

## CCOc1ccc(C(Nc2ccccn2)c2ccc3ccc(C)nc3c2O)cc1C (stereo not drawn) [HLM006474]
[1]; Well no.=5926
  remaining activity at 1.25 µM: 104%
[2]; Well no.=5926
  remaining activity at 3.75 µM: 100%

## CCCc1nn(C)c2c(=O)[nH]c(-c3cc(S(=O)(=O)N4CCN(C)CC4)ccc3OCC)nc12 [Sildenafil citrate]
[1]; Well no.=4821
  remaining activity at 1.25 µM: 94.7%
[2]; Well no.=4821
  remaining activity at 3.75 µM: 94.2%

## CN1CCC(=C2c3ccccc3CCc3cccnc32)CC1 [Azatadine (dimaleate)]
[1]; Well no.=7617
  remaining activity at 1.25 µM: 103%
[2]; Well no.=7617
  remaining activity at 3.75 µM: 105%

## CNC(=O)c1cc(COc2nnc(Nc3ccc(Cl)cc3)c3ccoc23)ccn1 [Telatinib (BAY 57-9352)]
[1]; Well no.=4858
  remaining activity at 1.25 µM: 99.7%
[2]; Well no.=4858
  remaining activity at 3.75 µM: 104%

## O=C(Nc1ccccc1)[C@@]12C[C@@H]1/C(=N\O)c1ccccc1O2 [PHCCC]
[1]; Well no.=8571
  remaining activity at 1.25 µM: 107%
[2]; Well no.=8571
  remaining activity at 3.75 µM: 105%

## CC(C)[C@H](N)C(=O)OCCOCn1cnc2c(=O)nc(N)[nH]c21 [Valaciclovir]
[1]; Well no.=2012
  remaining activity at 1.25 µM: 98.7%
[2]; Well no.=2012
  remaining activity at 3.75 µM: 97.7%

## Cc1ccc(NC(=O)Nc2cc(-c3ccccc3-c3nn[nH]n3)ccc2N(CC(C)C)CC(C)C)cc1 [IDO-IN-2]
[1]; Well no.=8123
  remaining activity at 1.25 µM: 99.9%
[2]; Well no.=8123
  remaining activity at 3.75 µM: 94.6%

## COc1cc(OC)c2cc(-c3ccncc3)cnc2c1 [DMPQ dihydrochloride]
[1]; Well no.=5933
  remaining activity at 1.25 µM: 100%
[2]; Well no.=5933
  remaining activity at 3.75 µM: 98.1%

## CC(C)[N+](C)(CCOC(=O)C1c2ccccc2Oc2ccccc21)C(C)C [Propantheline bromide]
[1]; Well no.=1401
  remaining activity at 1.25 µM: 102%
[2]; Well no.=1401
  remaining activity at 3.75 µM: 102%

## CNC(=O)c1ccccc1Oc1nc(Nc2cc(OC)c(OC)c(OC)c2)ncc1Br [SBI-0206965]
[1]; Well no.=7028
  remaining activity at 1.25 µM: 105%
[2]; Well no.=7028
  remaining activity at 3.75 µM: 103%

## N[C@@H]1C[C@H]1c1ccccc1 [Tranylcypromine hydrochloride]
[1]; Well no.=1399
  remaining activity at 1.25 µM: 100%
[2]; Well no.=1399
  remaining activity at 3.75 µM: 105%

## CC(CN1c2ccccc2Sc2ccccc21)N(C)C (stereo not drawn)
[1]; Well no.=3844
  remaining activity at 1.25 µM: 101%
[2]; Well no.=3844
  remaining activity at 3.75 µM: 97.9%

## O=C1C(C2=C3c4ccccc4NC3/C(=C\c3ccc(O)cc3)C2=O)=C2C(=Nc3ccccc32)/C1=C\c1ccc(O)cc1 (stereo not drawn) [Scytonemin, Lyngbya sp.]
[1]; Well no.=2669
  remaining activity at 1.25 µM: 96.6%
[2]; Well no.=2669
  remaining activity at 3.75 µM: 101%

## CCCCCCCCCCCCCCCCOCC(COP(=O)([O-])OCC[N+](C)(C)C)OC(C)=O (stereo not drawn) [Enantio-PAF C16]
[1]; Well no.=4455
  remaining activity at 1.25 µM: 98.4%
[2]; Well no.=4455
  remaining activity at 3.75 µM: 100%

## C[C@]12CCC(=O)C(O)=C1CC[C@@H]1[C@@H]2CC[C@]2(C)C(=O)CC[C@@H]12 [4-Androsten-4-ol-3,17-dione]
[1]; Well no.=305
  remaining activity at 1.25 µM: 96.5%
[2]; Well no.=305
  remaining activity at 3.75 µM: 93.5%

## CCN1CCN(C(=O)N[C@@H](C(=O)N[C@@H]2C(=O)N3[C@@H]2SC(C)(C)[C@@H]3C(=O)O)c2ccccc2)C(=O)C1=O [Piperacillin (sodium)]
[1]; Well no.=8072
  remaining activity at 1.25 µM: 96.2%
[2]; Well no.=8072
  remaining activity at 3.75 µM: 91.7%

## S=C(Nc1ccccc1)Nc1nccs1 [1-Phenyl-3-(2-thiazolyl)-2-thiourea]
[1]; Well no.=858
  remaining activity at 1.25 µM: 99.5%
[2]; Well no.=858
  remaining activity at 3.75 µM: 96.6%

## CCCCc1oc2ccc(NS(C)(=O)=O)cc2c1C(=O)c1ccc(OCCCN(CCCC)CCCC)cc1 [Dronedarone]
[1]; Well no.=8285
  remaining activity at 1.25 µM: 100%
[2]; Well no.=8285
  remaining activity at 3.75 µM: 94.4%

## COc1ccc(-c2coc3cc(O)ccc3c2=O)cc1 [Formononetin]
[1]; Well no.=3611
  remaining activity at 1.25 µM: 96.9%
[2]; Well no.=3611
  remaining activity at 3.75 µM: 96.2%

## Cc1ccc(NC(=O)Nc2cc([C@H]3C[C@H]3C(=O)O)ccc2N(CC(C)C)CC(C)C)cc1 [IDO-IN-4]
[1]; Well no.=8647
  remaining activity at 1.25 µM: 104%
[2]; Well no.=8647
  remaining activity at 3.75 µM: 106%

## O=c1[nH]c(=O)n([C@H]2C[C@H](O)[C@@H](CO)O2)cc1Br [5-BrdU]
[1]; Well no.=7862
  remaining activity at 1.25 µM: 96%
[2]; Well no.=7862
  remaining activity at 3.75 µM: 97.6%

## N[C@@H](CSCCCO)C(=O)O [Fudosteine]
[1]; Well no.=5102
  remaining activity at 1.25 µM: 100%
[2]; Well no.=5102
  remaining activity at 3.75 µM: 102%

## COc1ccc(C(=O)Nc2c(Cl)cncc2Cl)cc1OC1CCCC1 [3-(cyclopentyloxy)-N-(3,5-dichloro-4-pyridinyl)-4-methoxybenzamide]
[1]; Well no.=5876
  remaining activity at 1.25 µM: 105%
[2]; Well no.=5876
  remaining activity at 3.75 µM: 104%
